The values below come from ChEMBL document CHEMBL1671823, “Novel Cyclic Phosphinic Acids as GABAC ρ Receptor Antagonists: Design, Synthesis, and Pharmacology” (ACS Med Chem Lett, 2011).

The source made the active and inactive calls. The rule behind the calls is not given here.

In test [1] the target is T1, GABA-B receptor (Homo sapiens) (UniProt Q9UBS5+O75899). Put plainly: […] activity at human recombinant GABAb 1b/2 receptor expressed in Xenopus laevis oocytes co-expressing GIRK1/4 assessed as inhibition of GABA-induced current at 10 uM by two electrode voltage clamp technique. The class given is functional, cell-based. As to conditions: Oocyte. In general terms: Two-electrode voltage clamp holds a large cell at a set potential and records current.

Test [2] addresses T2, Gamma-aminobutyric acid receptor subunit rho-1 (Homo sapiens, UniProt P24046). Put plainly: Antagonist activity at human recombinant GABAc rho-1 receptor expressed in Xenopus laevis oocytes assessed as inhibition of GABA-induced current by two electrode voltage clamp technique. The class given is functional, cell-based, Oocyte. As to conditions: for Kb: Oocyte.
Test [3] concerns the target T1, GABA-B receptor (Homo sapiens). Put plainly: […] activity at human recombinant GABAb 1b/2 receptor expressed in Xenopus laevis oocytes co-expressing GIRK1/4 assessed as inhibition of GABA-induced current at 600 uM by two electrode voltage clamp technique. The class given is functional, cell-based. As to conditions: Oocyte.
The target of test [4] is T3, GABA-A receptor; alpha-1/beta-2/gamma-2 (Homo sapiens) (UniProt P14867+P47870+P18507). Put plainly: Antagonist activity at human recombinant GABAA alpha1beta2gamma2L receptor expressed in Xenopus laevis oocytes assessed as inhibition of GABA-induced current at 600 uM by two electrode voltage clamp technique. As to conditions: Oocyte. The class given is functional, cell-based.

Test [5] addresses T1, GABA-B receptor (Homo sapiens). Put plainly: […] activity at human recombinant GABAb 1b/2 receptor expressed in Xenopus laevis oocytes co-expressing GIRK1/4 assessed as inhibition of GABA-induced current by two electrode voltage clamp technique. The class given is functional, cell-based. As to conditions: Oocyte.
Test [6] addresses Gamma-aminobutyric acid receptor subunit rho-2 (Homo sapiens, UniProt P28476). Put plainly: Antagonist activity at human recombinant GABAc rho-2 receptor expressed in Xenopus laevis oocytes assessed as inhibition of GABA-induced current by two electrode voltage clamp technique. The class given is functional, cell-based, Oocyte.
The target in test [7] is T3, GABA-A receptor; alpha-1/beta-2/gamma-2 (Homo sapiens). Put plainly: Antagonist activity at human recombinant GABAA alpha1beta2gamma2L receptor expressed in Xenopus laevis oocytes assessed as inhibition of GABA-induced current at 100 uM by two electrode voltage clamp technique. The class given is functional, cell-based. As to conditions: Oocyte.
The target in test [8] is T2, Gamma-aminobutyric acid receptor subunit rho-1. Put plainly: Antagonist activity at human recombinant GABAc rho-1 receptor expressed in Xenopus laevis oocytes assessed as inhibition of GABA-induced current at 100 uM by two electrode voltage clamp technique. The class given is functional, cell-based. As to conditions: Oocyte.
The target in the next test is GABA-B receptor (Homo sapiens, UniProt O75899+Q9UBS5). Put plainly: Antagonist activity at human recombinant GABAb 1b/2 receptor expressed in Xenopus laevis oocytes co-expressing GIRK1/4 assessed as inhibition of GABA-induced current by two electrode voltage clamp technique. The class given is functional, cell-based, Oocyte.
Test [9] has as its target T2, Gamma-aminobutyric acid receptor subunit rho-1. Put plainly: Antagonist activity at human recombinant GABAc rho-1 receptor expressed in Xenopus laevis oocytes assessed as inhibition of GABA-induced current at 600 uM by two electrode voltage clamp technique. As to conditions: Oocyte. The class given is functional, cell-based.
The target of test [10] is T3, GABA-A receptor; alpha-1/beta-2/gamma-2 (Homo sapiens). Put plainly: Antagonist activity at human recombinant GABAA alpha1beta2gamma2L receptor expressed in Xenopus laevis oocytes assessed as inhibition of GABA-induced current at 300 uM by two electrode voltage clamp technique. As to conditions: Oocyte. The class given is functional, cell-based.
In test [11] the target is T1, GABA-B receptor (Homo sapiens). Put plainly: Antagonist activity at human recombinant GABAb 1b/2 receptor expressed in Xenopus laevis oocytes co-expressing GIRK1/4 assessed as inhibition of GABA-induced current at 300 uM by two electrode voltage clamp technique. The class given is functional, cell-based. As to conditions: Oocyte.

T2 sequence (P24046 whole entry): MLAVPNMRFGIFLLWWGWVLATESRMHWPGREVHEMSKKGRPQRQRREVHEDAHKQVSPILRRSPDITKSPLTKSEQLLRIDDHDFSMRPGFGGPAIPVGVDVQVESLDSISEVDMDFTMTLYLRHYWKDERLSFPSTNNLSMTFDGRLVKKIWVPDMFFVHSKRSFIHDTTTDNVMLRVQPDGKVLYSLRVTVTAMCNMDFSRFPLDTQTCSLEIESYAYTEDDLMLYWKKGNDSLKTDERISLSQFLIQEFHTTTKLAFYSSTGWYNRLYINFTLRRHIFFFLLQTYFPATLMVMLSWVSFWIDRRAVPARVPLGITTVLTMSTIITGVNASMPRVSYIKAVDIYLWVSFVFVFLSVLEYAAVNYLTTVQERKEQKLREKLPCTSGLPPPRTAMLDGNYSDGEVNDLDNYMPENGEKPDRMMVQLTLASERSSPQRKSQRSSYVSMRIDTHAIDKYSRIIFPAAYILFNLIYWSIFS
Sequence of Gamma-aminobutyric acid receptor subunit rho-2 (P28476 whole entry): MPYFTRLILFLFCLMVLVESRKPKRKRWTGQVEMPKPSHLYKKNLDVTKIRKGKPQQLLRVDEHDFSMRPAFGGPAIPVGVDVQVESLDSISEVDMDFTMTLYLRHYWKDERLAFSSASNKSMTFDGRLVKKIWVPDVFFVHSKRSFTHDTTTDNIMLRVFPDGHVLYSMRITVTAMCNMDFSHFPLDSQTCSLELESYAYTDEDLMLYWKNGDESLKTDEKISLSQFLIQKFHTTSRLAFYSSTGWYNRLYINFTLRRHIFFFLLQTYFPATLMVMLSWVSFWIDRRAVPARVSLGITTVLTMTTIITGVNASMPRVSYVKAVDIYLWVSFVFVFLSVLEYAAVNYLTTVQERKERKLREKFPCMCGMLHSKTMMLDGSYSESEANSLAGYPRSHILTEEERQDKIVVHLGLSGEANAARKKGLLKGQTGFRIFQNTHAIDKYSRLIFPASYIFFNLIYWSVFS
Sequence of GABA-B receptor (Q9UBS5 whole entry): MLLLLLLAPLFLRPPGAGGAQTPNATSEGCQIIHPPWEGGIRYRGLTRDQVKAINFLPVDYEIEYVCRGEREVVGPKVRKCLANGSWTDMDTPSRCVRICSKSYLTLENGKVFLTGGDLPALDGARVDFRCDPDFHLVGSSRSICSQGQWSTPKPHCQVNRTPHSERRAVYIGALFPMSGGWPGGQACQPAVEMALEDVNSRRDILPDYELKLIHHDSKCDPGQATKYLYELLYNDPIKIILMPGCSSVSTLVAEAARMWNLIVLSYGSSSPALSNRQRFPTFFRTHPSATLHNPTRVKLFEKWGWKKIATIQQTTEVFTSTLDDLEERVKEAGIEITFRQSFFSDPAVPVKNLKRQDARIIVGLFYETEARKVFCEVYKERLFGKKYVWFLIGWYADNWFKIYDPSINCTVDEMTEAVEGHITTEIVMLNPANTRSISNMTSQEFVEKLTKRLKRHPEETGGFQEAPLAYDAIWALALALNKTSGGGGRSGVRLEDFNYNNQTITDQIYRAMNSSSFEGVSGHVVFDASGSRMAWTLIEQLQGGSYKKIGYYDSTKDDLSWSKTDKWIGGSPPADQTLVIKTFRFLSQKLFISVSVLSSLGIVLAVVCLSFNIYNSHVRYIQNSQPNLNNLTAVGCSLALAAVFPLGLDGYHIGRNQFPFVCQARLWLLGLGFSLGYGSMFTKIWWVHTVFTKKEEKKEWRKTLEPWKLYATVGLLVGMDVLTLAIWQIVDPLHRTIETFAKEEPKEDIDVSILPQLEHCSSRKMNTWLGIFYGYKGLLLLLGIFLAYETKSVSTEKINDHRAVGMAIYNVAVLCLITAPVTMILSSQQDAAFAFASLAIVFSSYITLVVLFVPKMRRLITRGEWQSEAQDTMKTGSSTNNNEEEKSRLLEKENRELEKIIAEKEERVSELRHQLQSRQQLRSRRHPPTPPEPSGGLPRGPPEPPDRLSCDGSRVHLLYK
Sequence of GABA-B receptor (O75899 whole entry): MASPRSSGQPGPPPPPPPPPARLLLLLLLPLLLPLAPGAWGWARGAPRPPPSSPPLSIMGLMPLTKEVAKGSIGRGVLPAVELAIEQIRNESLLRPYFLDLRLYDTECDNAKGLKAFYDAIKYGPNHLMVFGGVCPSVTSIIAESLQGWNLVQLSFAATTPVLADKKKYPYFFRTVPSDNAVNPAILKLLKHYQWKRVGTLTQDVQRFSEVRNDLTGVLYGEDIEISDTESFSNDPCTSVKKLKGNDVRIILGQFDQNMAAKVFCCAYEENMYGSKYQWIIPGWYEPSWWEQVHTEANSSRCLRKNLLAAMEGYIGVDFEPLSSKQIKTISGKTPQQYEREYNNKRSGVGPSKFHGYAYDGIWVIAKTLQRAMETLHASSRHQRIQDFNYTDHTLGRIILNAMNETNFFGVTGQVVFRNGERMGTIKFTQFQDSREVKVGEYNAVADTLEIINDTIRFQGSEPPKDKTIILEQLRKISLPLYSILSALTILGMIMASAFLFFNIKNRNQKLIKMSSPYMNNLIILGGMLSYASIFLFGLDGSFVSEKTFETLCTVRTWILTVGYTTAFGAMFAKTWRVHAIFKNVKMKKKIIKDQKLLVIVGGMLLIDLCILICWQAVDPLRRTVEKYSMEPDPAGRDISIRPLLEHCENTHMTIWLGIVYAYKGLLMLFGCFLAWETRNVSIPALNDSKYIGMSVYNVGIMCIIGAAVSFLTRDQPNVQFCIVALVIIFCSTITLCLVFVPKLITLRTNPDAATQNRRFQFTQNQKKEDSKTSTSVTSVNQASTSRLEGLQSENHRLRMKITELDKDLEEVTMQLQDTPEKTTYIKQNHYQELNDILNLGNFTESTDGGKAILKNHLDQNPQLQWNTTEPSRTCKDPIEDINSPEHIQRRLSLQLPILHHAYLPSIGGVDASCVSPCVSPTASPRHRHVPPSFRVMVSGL

Consider `NCC1CCP(=O)(O)C1` (stereo not drawn), for which the inhibition entry in [1] and in test [4] was “inactive” each time. Moreover, the results for the IC50 in test [2] and in test [6] were 19.9 µM and 57.1 µM, respectively. For the same compound, the inhibition – broadly, the share of the control response that was lost under treatment – in test [3] was 45.2%; in test [5], “Dose-dependent effect”.

Take `N=C(N)NC1CCP(=O)(O)C1` (stereo not drawn): in [2], the IC50 (commonly the point on the concentration scale where inhibition reaches its midpoint) is 29.7 µM and the Kb (commonly the equilibrium dissociation constant of an antagonist, usually derived from a functional assay) was 10 µM. Besides, the inhibition in test [4] was determined as 29.2%. In addition, in test [6], the IC50 came to 51.3 µM.

Consider `O=P1(O)CCC(CO)C1` (stereo not drawn), for which the inhibition result in [7] and in [8] was “inactive” each time.

Take `CP(=O)(O)C1=CCNCC1`: the results for the IC50 in test [2] and in test [6] were 2.22 µM and 22.1 µM, respectively. Moreover, the Kb in test [6] (Oocyte) was found to be 14.9 µM. For the same compound, the EC50 (commonly the concentration giving half of the maximal effect) at GABA-B receptor was 500 µM.

Take `NC1CCP(=O)(O)C1` (stereo not drawn): the inhibition entry in test [4] and in test [9] was “inactive” each time.

Turning to `CCCCP(=O)(O)C1=CC[C@H](N)C1`, the Kb in [2] amounted to 2.1 µM. Moreover, the inhibition was found to be 24.2% in [10] and 22.5% in test [11].

For the compound `O=C(O)C1CCP(=O)(O)C1` (stereo not drawn), the inhibition result in test [7] and in [8] was “inactive” in each case.
